Test results reported in US20230372313A1, “METHODS FOR REDUCING GLYCOSPHINGOLIPID CONCENTRATION IN BRAIN TISSUE AND METHODS OF TREATMENT OF NEURODEGENERATIVE DISEASES INVOLVING THE SAME” (GENZYME CORPORATION, priority 2020, published 2023).

Experiments:
Format in all cases: in vivo, human
[1] = CSF concentration of Compound 2 in PD participants (LC-MS/MS); conditions: for CSF concentration, mean: week 4, 2-4 h postdose; for CSF concentration, Fold increase vs low dose: week 4
Procedure: Participants were randomised to 3 doses of once-daily orally administered Compound 2 or placebo, in sequential cohort design, and were followed up to 36 weeks (52 weeks for Japanese participants). Participants in the low-dose group received 4 mg of Compound 2 as a once daily oral dose; participants in the mid-dose group received 8 mg of Compound 2 a once daily oral dose; and participants in the high-dose group received 15 mg of Compound 2 a once daily oral dose.
The secondary outcome was to evaluate the pharmacokinetic profile of Compound 2 in plasma and cerebrospinal fluid (CSF) over a 4-week period. Plasma pharmacokinetic parameters included maximum plasma concentration (Cmax), time to Cmax (tmax), and area under the plasma concentration versus time curve from 0 to 24 h (AUC0-24). All parameters were assessed at Week 0 and Week 4 after treatment. In addition, AUC0-48 was assessed at Week 0, trough plasma concentration observed just before treatment administration during repeated dosing (Ctrough) was assessed at Weeks 2, 4, and 8 (FIG. 3), and total systemic clearance from plasma at steady state (CLSS/F) was assessed at Week 4. Plasma samples were collected at 1 hour pre-dose and 1, 2, 4, 8, 24, and 48 hours postdose. Compound 2 concentration in plasma was determined using a liquid chromatography tandem mass spectrometry method with a lower limit of quantification of 0.500 ng/mL. CSF samples were collected by lumbar puncture during the screening period (within 14 days prior to randomisation) or on the day of randomisation, and at Week 4, within 2 to 4 hours postdose. Compound 2 concentration in CSF was determined using a liquid chromatography tandem mass spectrometry method with a lower limit of quantification of 0.100 ng/mL.

glucosylceramide (GL-1) [2] = experiment: Plasma glucosylceramide (GL-1) levels, pharmacodynamics
From the text: (§1) Analyses were based on all available data from participants who enrolled in part 1 of the trial and were randomised to receive either Compound 2 or placebo for up to 52 weeks for Japanese participants and 36 weeks for the ROW population. As part 1 was an exploratory, dose-escalation study, the sample size was not based on a statistical power calculation. Participants included in the primary safety analyses were those who were randomized and received at least one dose of Compound 2 or placebo. A data monitoring committee was responsible for overseeing the safety of patients and the risk/benefit ratio throughout the study. Duration of exposure to Compound 2 was different among the doses, as per the sequential cohort design, with the low- and high-dose cohorts commencing the study first and last, respectively. For pharmacokinetics, plasma parameters were calculated using noncompartmental methods, from plasma Compound 2 concentrations obtained after single dose administration. AUC0-24 and AUC0-48 were calculated using the trapezoidal method over a predefined time period of 24 hours or 48 hours, respectively. CLss/F was calculated using the following equation: CLss/F=Dose/AUCτ, where τ is the dosing interval. For pharmacodynamics, percent reduction of plasma or CSF GL-1 from baseline was calculated as (value−baseline)/baseline×100. Formal statistical testing was not conducted on MDS-UPDRS scale assessments.
(§2) In exploratory analyses, Compound 2 pharmacodynamics in plasma and CSF were assessed by mean percent change in GL-1 levels from baseline through Week 4. GL-1 levels were assessed in plasma and CSF samples collected at the day of randomisation and Week 4, with plasma GL-1 levels also assessed at Week 2.
(§3) Concentrations of GL-1 in plasma and CSF were determined using a liquid chromatography tandem mass spectrometry method. Secondary pharmacokinetic outcomes were evaluated over a 4-week period of once-daily Compound 2 dosing (Table 7).

glucosylceramide (GL-1) [3] = experiment: CSF glucosylceramide (GL-1) levels, pharmacodynamics
From the text: as §1, §2, §3

[4] = Japan, High 15 mg once daily oral, n = 3
[5] = Japan, Low 4 mg once daily oral, n = 3
[6] = Japan, Mid 8 mg once daily oral, n = 3
[7] = Japanese cohort, high-dose 15 mg
[8] = Japanese cohort, medium-dose 8 mg
[9] = ROW participants, high-dose 15 mg
[10] = ROW participants, low-dose 4 mg
[11] = ROW participants, medium-dose 8 mg
[12] = ROW, High 15 mg once daily oral, n = 4
[13] = ROW, Low 4 mg once daily oral, n = 4
[14] = ROW, Mid 8 mg once daily oral, n = 5
[15] = ROW, High 15 mg once daily oral, n = 4, CSF sample not collected for 1 participant

For `CC(C)(NC(=O)O[C@@H]1CN2CCC1CC2)c1csc(-c2ccc(F)cc2)n1` [Compound 2, (S)-quinuclidin-3-yl (2-(2-(4-fluorophenyl)thiazol-4-yl)propan-2-yl)carbamate], the “CSF concentration, mean” value [1, 4] was 10.1 ng/mL, the “CSF concentration, mean” value [1, 5] was 2.11 ng/mL and the “CSF concentration, mean” value [1, 6] was 4.33 ng/mL. For the same molecule, the “CSF concentration, mean” value ([1]; ROW, High 15 mg once daily oral, sample not collected for 1 of n = 4) was 5.96 ng/mL, the “CSF concentration, mean” value ([1]; ROW, Low 4 mg once daily oral, 1 of n = 4 not included) was 1.85 ng/mL and the “CSF concentration, mean” value ([1]; ROW, Mid 8 mg once daily oral, 2 of n = 5 not included) was 3.15 ng/mL. The “CSF concentration, Fold increase vs low dose” value ([1]; Japan, High 15 mg vs Low 4 mg) was 4.79 fold, the “CSF concentration, Fold increase vs low dose” value ([1]; Japan, Mid 8 mg vs Low 4 mg) was 2.05 fold and the “CSF concentration, Fold increase vs low dose” value ([1]; ROW, High 15 mg vs Low 4 mg) was 3.22 fold. The “CSF concentration, Fold increase vs low dose” value ([1]; ROW, Mid 8 mg vs Low 4 mg) was 1.70 fold, the “increase of Compound 2 concentration in CSF with dose” value ([1]; Japanese and ROW cohorts, 4, 8, 15 mg) was “close to dose-proportional manner” and the “Plasma GL-1, Week 2 (mean)” value (glucosylceramide (GL-1) [2]; [4]) was 1.231 µg/mL. For the same molecule, the “Plasma GL-1, Week 2, Change from baseline (%) (mean)” value (glucosylceramide (GL-1) [2]; [4]) was −77.2%, the “Plasma GL-1, Week 2, Change from baseline (mean)” value (glucosylceramide (GL-1) [2]; [4]) was -4.285 µg/mL and the “Plasma GL-1, Week 4 (mean)” value (glucosylceramide (GL-1) [2]; [4]) was 1.149 µg/mL. The “Plasma GL-1, Week 4, Change from baseline (%) (mean)” value (glucosylceramide (GL-1) [2]; [4]) was −79.3%, the “Plasma GL-1, Week 4, Change from baseline (mean)” value (glucosylceramide (GL-1) [2]; [4]) was -4.368 µg/mL and the “Plasma GL-1, Week 2 (mean)” value (glucosylceramide (GL-1) [2]; [5]) was 2.230 µg/mL. The “Plasma GL-1, Week 2, Change from baseline (%) (mean)” value (glucosylceramide (GL-1) [2]; [5]) was −63.6%, the “Plasma GL-1, Week 2, Change from baseline (mean)” value (glucosylceramide (GL-1) [2]; [5]) was -3.797 µg/mL and the “Plasma GL-1, Week 4 (mean)” value (glucosylceramide (GL-1) [2]; [5]) was 2.097 µg/mL. For the same molecule, the “Plasma GL-1, Week 4, Change from baseline (%) (mean)” value (glucosylceramide (GL-1) [2]; [5]) was −66.1%, the “Plasma GL-1, Week 4, Change from baseline (mean)” value (glucosylceramide (GL-1) [2]; [5]) was -3.930 µg/mL and the “Plasma GL-1, Week 2 (mean)” value (glucosylceramide (GL-1) [2]; [6]) was 1.507 µg/mL. For the same molecule, the “Plasma GL-1, Week 2, Change from baseline (%) (mean)” value (glucosylceramide (GL-1) [2]; [6]) was −67.5%, the “Plasma GL-1, Week 2, Change from baseline (mean)” value (glucosylceramide (GL-1) [2]; [6]) was -3.133 µg/mL and the “Plasma GL-1, Week 4 (mean)” value (glucosylceramide (GL-1) [2]; [6]) was 1.340 µg/mL. The “Plasma GL-1, Week 4, Change from baseline (%) (mean)” value (glucosylceramide (GL-1) [2]; [6]) was −70.7%, the “Plasma GL-1, Week 4, Change from baseline (mean)” value (glucosylceramide (GL-1) [2]; [6]) was -3.300 µg/mL and the “mean reduction in plasma GL-1 at Week 4” value (glucosylceramide (GL-1) [2]; [7]) was 79.3%. For the same molecule, the “mean reduction in plasma GL-1 at Week 4” value (glucosylceramide (GL-1) [2]; Japanese cohort, low-dose 4 mg) was 66.1%, the “mean reduction in plasma GL-1 at Week 4” value (glucosylceramide (GL-1) [2]; [8]) was 70.7% and the “mean reduction in plasma GL-1 at Week 4” value (glucosylceramide (GL-1) [2]; [9]) was 77.7%. The “mean reduction in plasma GL-1 at Week 4” value (glucosylceramide (GL-1) [2]; [10]) was 59.0%, the “mean reduction in plasma GL-1 at Week 4” value (glucosylceramide (GL-1) [2]; [11]) was 71.0% and the “Plasma GL-1, Week 2 (mean)” value (glucosylceramide (GL-1) [2]; [12]) was 1.469 µg/mL. For the same molecule, the “Plasma GL-1, Week 2, Change from baseline (%) (mean)” value (glucosylceramide (GL-1) [2]; [12]) was −73.9%, the “Plasma GL-1, Week 2, Change from baseline (mean)” value (glucosylceramide (GL-1) [2]; [12]) was -4.119 µg/mL and the “Plasma GL-1, Week 4 (mean)” value (glucosylceramide (GL-1) [2]; [12]) was 1.253 µg/mL. For the same molecule, the “Plasma GL-1, Week 4, Change from baseline (%) (mean)” value (glucosylceramide (GL-1) [2]; [12]) was −77.7%, the “Plasma GL-1, Week 4, Change from baseline (mean)” value (glucosylceramide (GL-1) [2]; [12]) was -4.335 µg/mL and the “Plasma GL-1, Week 2 (mean)” value (glucosylceramide (GL-1) [2]; [13]) was 2.340 µg/mL. The “Plasma GL-1, Week 2, Change from baseline (%) (mean)” value (glucosylceramide (GL-1) [2]; [13]) was −54.3%, the “Plasma GL-1, Week 2, Change from baseline (mean)” value (glucosylceramide (GL-1) [2]; [13]) was -2.815 µg/mL and the “Plasma GL-1, Week 4 (mean)” value (glucosylceramide (GL-1) [2]; [13]) was 2.093 µg/mL. For the same molecule, the “Plasma GL-1, Week 4, Change from baseline (%) (mean)” value (glucosylceramide (GL-1) [2]; [13]) was −59.0%, the “Plasma GL-1, Week 4, Change from baseline (mean)” value (glucosylceramide (GL-1) [2]; [13]) was -3.063 µg/mL and the “Plasma GL-1, Week 2 (mean)” value (glucosylceramide (GL-1) [2]; [14]) was 1.644 µg/mL. For the same molecule, the “Plasma GL-1, Week 2, Change from baseline (%) (mean)” value (glucosylceramide (GL-1) [2]; [14]) was −69.9%, the “Plasma GL-1, Week 2, Change from baseline (mean)” value (glucosylceramide (GL-1) [2]; [14]) was -3.830 µg/mL and the “Plasma GL-1, Week 4 (mean)” value (glucosylceramide (GL-1) [2]; [14]) was 1.578 µg/mL. The “Plasma GL-1, Week 4, Change from baseline (%) (mean)” value (glucosylceramide (GL-1) [2]; [14]) was −71.0%, the “Plasma GL-1, Week 4, Change from baseline (mean)” value (glucosylceramide (GL-1) [2]; [14]) was -3.896 µg/mL and the “decrease of plasma GL-1 levels from baseline versus dose” value (glucosylceramide (GL-1) [2]; over 4 weeks) was “dose-dependent manner”. For the same molecule, the “CSF GL-1, Week 4 (mean)” value (glucosylceramide (GL-1) [3]; [4]) was 2.770 ng/mL, the “CSF GL-1, Week 4, Change from baseline (%) (mean)” value (glucosylceramide (GL-1) [3]; [4]) was −72.0% and the “CSF GL-1, Week 4, Change from baseline (mean)” value (glucosylceramide (GL-1) [3]; [4]) was -6.663 ng/mL. The “CSF GL-1, Week 4 (mean)” value (glucosylceramide (GL-1) [3]; [5]) was 3.843 ng/mL, the “CSF GL-1, Week 4, Change from baseline (%) (mean)” value (glucosylceramide (GL-1) [3]; [5]) was −21.7% and the “CSF GL-1, Week 4, Change from baseline (mean)” value (glucosylceramide (GL-1) [3]; [5]) was -1.733 ng/mL. For the same molecule, the “CSF GL-1, Week 4 (mean)” value (glucosylceramide (GL-1) [3]; [6]) was 3.027 ng/mL, the “CSF GL-1, Week 4, Change from baseline (%) (mean)” value (glucosylceramide (GL-1) [3]; [6]) was −67.0% and the “CSF GL-1, Week 4, Change from baseline (mean)” value (glucosylceramide (GL-1) [3]; [6]) was -5.023 ng/mL. For the same molecule, the “mean reduction in CSF GL-1 at Week 4” value (glucosylceramide (GL-1) [3]; [7]) was 72.0%, the “mean reduction in CSF GL-1 at Week 4” value (glucosylceramide (GL-1) [3]; Japanese cohort, low-dose 4 mg) was 21.7% and the “mean reduction in CSF GL-1 at Week 4” value (glucosylceramide (GL-1) [3]; [8]) was 67.0%. For the same molecule, the “mean reduction in CSF GL-1 at Week 4” value (glucosylceramide (GL-1) [3]; [9]) was 74.3%, the “mean reduction in CSF GL-1 at Week 4” value (glucosylceramide (GL-1) [3]; [10]) was 41.0% and the “mean reduction in CSF GL-1 at Week 4” value (glucosylceramide (GL-1) [3]; [11]) was 58.0%. The “CSF GL-1, Week 4 (mean)” value (glucosylceramide (GL-1) [3]; [15]) was 1.623 ng/mL, the “CSF GL-1, Week 4, Change from baseline (%) (mean)” value (glucosylceramide (GL-1) [3]; [15]) was −74.3% and the “CSF GL-1, Week 4, Change from baseline (mean)” value (glucosylceramide (GL-1) [3]; [15]) was -5.250 ng/mL. For the same molecule, the “CSF GL-1, Week 4 (mean)” value (glucosylceramide (GL-1) [3]; [13]) was 4.315 ng/mL, the “CSF GL-1, Week 4, Change from baseline (%) (mean)” value (glucosylceramide (GL-1) [3]; [13]) was −41.0% and the “CSF GL-1, Week 4, Change from baseline (mean)” value (glucosylceramide (GL-1) [3]; [13]) was -2.433 ng/mL. The “CSF GL-1, Week 4 (mean)” value (glucosylceramide (GL-1) [3]; [14]) was 4.406 ng/mL, the “CSF GL-1, Week 4, Change from baseline (%) (mean)” value (glucosylceramide (GL-1) [3]; [14]) was −58.0% and the “CSF GL-1, Week 4, Change from baseline (mean)” value (glucosylceramide (GL-1) [3]; [14]) was -6.376 ng/mL. The “decrease in CSF GL-1 levels from baseline” value (glucosylceramide (GL-1) [3]; highest dose (15 mg), Japanese and ROW cohorts) was 72.0%-74.3%, the brain penetration (glucosylceramide (GL-1) [3]; oral administration, indicated by CSF GL-1 decrease) was “brain-penetrant on oral administration” and the “decrease of CSF GL-1 levels from baseline versus dose” value (glucosylceramide (GL-1) [3]; over 4 weeks) was “dose-dependent manner”.
